Data from patent publication US20240209019A1, “COMPOUNDS AND METHODS FOR TREATING HYPERKALEMIA” (ARDELYX, INC., priority 2019, published 2024).

target: HSD2 (Homo sapiens (Human), UniProt P80365); assay: HSD2 activity: cortisol conversion in human descending colon organoid monolayer cultures (Example 112); conditions: not given
Sequence (P80365 whole entry): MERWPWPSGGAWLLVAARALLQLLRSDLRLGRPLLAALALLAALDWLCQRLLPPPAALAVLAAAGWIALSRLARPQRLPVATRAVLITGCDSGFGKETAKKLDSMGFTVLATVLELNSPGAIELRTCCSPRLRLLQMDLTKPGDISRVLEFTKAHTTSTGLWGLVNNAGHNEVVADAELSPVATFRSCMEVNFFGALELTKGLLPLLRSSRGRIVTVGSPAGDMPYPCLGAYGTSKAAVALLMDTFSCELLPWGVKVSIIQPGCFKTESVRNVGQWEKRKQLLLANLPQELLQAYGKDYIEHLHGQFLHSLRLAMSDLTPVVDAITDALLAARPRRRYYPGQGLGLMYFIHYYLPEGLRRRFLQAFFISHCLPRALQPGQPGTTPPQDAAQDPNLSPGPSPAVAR

| SMILES | IC50 |
| --- | --- |
| COCCOCCOCCOCCC(=O)O[C@H]1CC[C@@]2(C)[C@@H](CC[C@]3(C)[C@@H]2C(=O)C=C2[C@@H]4C[C@@](C)(C(=O)O)CC[C@]4(C)CC[C@]23C)[C@]1(C)C(=O)O [Compound 190-3, (2S,4aS,6aS,6bR,8aR,9S,10S,12aS,12bR,14bR)-10-((2,5,8,11-tetraoxatetradecan-14-oyl)oxy)-2,4a,6a,6b,9,12a-hexamethyl-13-oxo-1,2,3,4,4a,5,6,6a,6b,7,8,8a,9,10,11,12,12a,12b,13,14b-icosahydropicene-2,9-dicarboxylic acid] | > 10 µM |

same assay, conditions: human descending colon epithelial cultures on transwells; 30 minute pre-incubation, then 40 nM cortisol for four hours; cortisol HTRF assay

| SMILES | pIC50 |
| --- | --- |
| COCC(=O)O[C@H]1CC[C@@]2(C)[C@@H](CC[C@]3(C)[C@@H]2C(=O)C=C2[C@@H]4C[C@@](C)(C(=O)O)CC[C@]4(C)CC[C@]23C)[C@]1(C)C(=O)OCc1oc(=O)oc1C(C)C [Compound 708-1, (2S,4aS,6aS,6bR,8aR,9S,10S,12aS,12bR,14bR)-10-[(2-methoxyacetyl)oxy]-2,4a,6a,6b,9,12a-hexamethyl-13-oxo-9-({[2-oxo-5-(propan-2-yl)-2H-1,3-dioxol-4-yl]methoxy}carbonyl)-1,2,3,4,4a,5,6,6a,6b,7,8,8a,9,10,11,12,12a,12b,13,14b-icosahydropicene-2-carboxylic acid] | 6.3 |
| C[C@]1(C(=O)O)CC[C@]2(C)CC[C@]3(C)C(=CC(=O)[C@@H]4[C@@]5(C)CC[C@H](OC(=O)c6ccccc6)[C@@](C)(C(=O)O)[C@@H]5CC[C@]43C)[C@@H]2C1 [(2S,4aS,6aS,6bR,8aR,9S,10S,12aS,12bR,14bR)-10-(benzoyloxy)-2,4a,6a,6b,9,12a-hexamethyl-13-oxo-1,2,3,4,4a,5,6,6a,6b,7,8,8a,9,10,11,12,12a,12b,13,14b-icosahydropicene-2,9-dicarboxylic acid] | 6.6 |
| CSCC(=O)O[C@H]1CC[C@@]2(C)[C@@H](CC[C@]3(C)[C@@H]2C(=O)C=C2[C@@H]4C[C@@](C)(C(=O)O)CC[C@]4(C)CC[C@]23C)[C@]1(C)C(=O)OCc1oc(=O)oc1C(C)C [Compound 701-1, (2S,4aS,6aS,6bR,8aR,9S,10S,12aS,12bR,14bR)-2,4a,6a,6b,9,12a-hexamethyl-10-{[2-(methylsulfanyl)acetyl]oxy}-13-oxo-9-({[2-oxo-5-(propan-2-yl)-2H-1,3-dioxol-4-yl]methoxy}carbonyl)-1,2,3,4,4a,5,6,6a,6b,7,8,8a,9,10,11,12,12a,12b,13,14b-icosahydropicene-2-carboxylic acid] | 7 |
| CC(=O)O[C@]1(C)CC[C@@]2(C)[C@@H](CC[C@]3(C)[C@@H]2C(=O)C=C2[C@@H]4C[C@@](C)(C(=O)O)CC[C@]4(C)CC[C@]23C)[C@]1(C)C(=O)OCc1oc(=O)oc1C [Compound 704-1, (2S,4aS,6aS,6bR,8aR,9S,10R,12aS,12bR,14bR)-10-(acetyloxy)-2,4a,6a,6b,9,10,12a-heptamethyl-9-{[(5-methyl-2-oxo-2H-1,3-dioxol-4-yl)methoxy]carbonyl}-13-oxo-1,2,3,4,4a,5,6,6a,6b,7,8,8a,9,10,11,12,12a,12b,13,14b-icosahydropicene-2-carboxylic acid] | 6.3 |
| CC(=O)O[C@H]1CC[C@@]2(C)[C@@H](CC[C@]3(C)[C@@H]2C(=O)C=C2[C@@H]4C[C@@](C)(C(=O)O)CC[C@]4(C)CC[C@]23C)[C@]1(C)C(=O)O [(2S,4aS,6aS,6bR,8aR,9S,10S,12aS,12bR,14bR)-10-(acetyloxy)-2,4a,6a,6b,9,12a-hexamethyl-13-oxo-1,2,3,4,4a,5,6,6a,6b,7,8,8a,9,10,11,12,12a,12b,13,14b-icosahydropicene-2,9-dicarboxylic acid] | 5.9 |
